Assay results published in paper PMC12974487, “Inhibition of FicD-mediated AMPylation and deAMPylation by isoprenoid diphosphates” (Proceedings of the National Academy of Sciences of the …, 2026).

Target: T1, FicD^L258D (Homo sapiens, UniProt Q9BVA6, L258D)
T1 construct: soluble ER luminal domain (residues 105 to 458) of wild-type human FicD and three mutants; 6xHis-Sumo (N, cleaved yes); made in house; host or cells: Rosetta(DE3) E. coli
T1 sequence (Q9BVA6 105-458 L258D): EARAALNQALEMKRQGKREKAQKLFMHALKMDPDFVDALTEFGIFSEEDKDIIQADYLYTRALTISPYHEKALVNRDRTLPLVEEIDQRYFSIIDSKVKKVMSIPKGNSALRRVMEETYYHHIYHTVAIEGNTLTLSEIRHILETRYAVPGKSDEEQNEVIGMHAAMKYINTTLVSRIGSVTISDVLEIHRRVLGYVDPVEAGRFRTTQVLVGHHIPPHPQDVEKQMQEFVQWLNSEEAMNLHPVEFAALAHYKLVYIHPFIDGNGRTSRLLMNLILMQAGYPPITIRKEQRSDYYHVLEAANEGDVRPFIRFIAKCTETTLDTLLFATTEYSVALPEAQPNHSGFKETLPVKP
Assay: Isothermal titration calorimetry (ITC) with Δ104hFicD^L258D
Type: binding
Conditions: 4 mM MgCl2
Description: To further support this notion, we used Isothermal Titration Calorimetry (ITC) to determine the Kd of FPP binding. […] In these experiments, the interaction between FPP and Mg^2+ generated endothermic peaks that interfered with detecting the interaction between FPP, Mg^2+, and FicD (Fig. 3, Upper). The stoichiometry of FPP binding to FicD was consistently <0.85, which may indicate that Mg^2+ was not saturating. Because the endothermic interaction between Mg^2+ and FPP limited the quantity of MgCl2 we could add, the measured Kd could be larger than the true value.
Fig. 3. ITC with FicD and Farnesyl-pyrophosphate. Representative ITC thermogram for FPP binding to Δ104hFicD^L258D (Upper). […] Dissociation constants (Kd) of individual replicates and global fitting of triplicate isotherms are reported with 1σ error intervals in parenthesis. TEXT PRINTED IN THE PICTURE: no label printed: Kd (nM): 32.3 (15.6, 54.9) (Replicate 1); Kd (nM): 25.6 (10.1, 47.7) (Replicate 2); Kd (nM): 45.2 (29.4, 68.8) (Replicate 3); Kd (nM): 60.3 (23.1, 126.3) (Global) DOUBTS OF THE COPYIST ABOUT THIS PICTURE: The picture prints no substance label; the table rows are replicates and a global fit of one measurement, so all four Kd values are given under one unlabeled substance. […]
Isothermal Titration Calorimetry
Proteins were dialyzed against 25mM HEPES pH 7.4/100mM KCl/10% glycerol prior to titration.
Dialyzed proteins were then spun down at 21,000G for 15 minutes at 4C to remove trace insoluble material. The protein concentration was measured spectrophotometrically and then diluted to working concentration with 25mM HEPES pH 7.4/100mM KCl/10% glycerol. MgCl2 was added to proteins to a final concentration of 4mM. ITC experiments were performed in a Micro-Cal PEAQ-ITC (Malvern Panalytical, Worcestershire, UK) calorimeter with a stirred 206.2 μL reaction cell held at 20 °C. 250μM FPP was titrated into 25uM Δ104hFicL258D with 750rpm stirring. The first injection was 0.5 μL, followed by twenty 1.9 μL injections. ITC data were integrated and baseline corrected using NITPIC 2.1.5 (10, 11). Integrated data was globally analyzed in SEDPHAT 15.b (12) using a model considering a single class of binding sites. […]
10% Lithium dodecyl sulfate, 50% glycerol, 50mM DTT, 0.05% Bromophenol blue) and then heated […]
For deAMPylation assays with FicD and BiP, Δ26hBiPT229A was in-vitro AMPylated by […]
5mM MgCl2, 500uM ATP, 0.5% CHAPS, 1mM DTT. After one hour of incubation at 30-37C, the entire reaction mix was transferred into an Amicon 0.5mL 50kDa MWCO concentrator (cat no.
7.4/150mM NaCl/10% glycerol/1mM DTT was added to the concentrated AMPylation reaction and then spun down again at 14,000 x g at 4C for 5-10 minutes. This step was repeated four times to buffer exchange AMPylated Δ26hBiPT229A.
Δ104hFicDWT and Δ26hBiPT229A-AMP were combined at a ratio of 1:80 in buffer containing 25mM HEPES pH 7.4, 100mM KCl, 5mM MgCl2, 1mM DTT and the indicated small molecule where applicable. Reactions were incubated at 37C for 1 hour and stopped by the addition EDTA. 5X SDS sample buffer (250mM Tris pH 6.8, 10% Lithium dodecyl sulfate, 50% glycerol, 50mM DTT, 0.05% Bromophenol blue) was then added to the reactions and reactions were heated for 5 minutes at […]
For in-vitro AMPylation assays with VopS and CDC42, Δ30VopS and GST-CDC42 – provided by a previous lab member – were combined at a 1:80 molar ratio in 50mM Tris pH 7.4/100mM NaCl/1mM DTT in the presence of GPP or FPP, where applicable. […]

SMILES: CC(C)=CCC/C(C)=C/CC/C(C)=C/COP(=O)(O)OP(=O)(O)O [FPP, farnesyl-pyrophosphate]
- stoichiometry of binding to FicD (ITC): < 0.85
